The source of these data is US8791132B2, “Compounds and methods for treatment of hypertension” (Medivation Technologies, Inc., priority 2011, dated 2014).

Where “and” joins values, the source holds several entries; their conditions need not be identical. Equal values may be shown once. Read-outs that look alike come from different tables or passages of the source.

The target in assay [1] is T1, rat adrenergic α1B receptor (Rattus norvegicus, UniProt P15823).
T1 construct: rat adrenergic α1B receptor obtained from Wistar Rat liver; from tissue; host or cells: Wistar rat liver
T1 sequence (P15823 1-515): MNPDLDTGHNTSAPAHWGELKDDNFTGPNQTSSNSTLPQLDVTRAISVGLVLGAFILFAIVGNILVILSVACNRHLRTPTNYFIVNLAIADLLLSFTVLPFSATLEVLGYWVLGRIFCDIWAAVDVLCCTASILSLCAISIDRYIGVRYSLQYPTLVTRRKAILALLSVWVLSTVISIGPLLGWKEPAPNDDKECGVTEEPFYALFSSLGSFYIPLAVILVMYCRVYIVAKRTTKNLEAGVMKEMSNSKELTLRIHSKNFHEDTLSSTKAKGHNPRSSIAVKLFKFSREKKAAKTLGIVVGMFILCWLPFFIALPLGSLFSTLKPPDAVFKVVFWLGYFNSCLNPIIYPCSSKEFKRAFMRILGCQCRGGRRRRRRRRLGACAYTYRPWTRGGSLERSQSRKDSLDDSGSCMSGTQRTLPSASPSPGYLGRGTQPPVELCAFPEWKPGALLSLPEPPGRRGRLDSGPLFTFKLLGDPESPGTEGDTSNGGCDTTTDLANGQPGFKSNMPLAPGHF
Description: Radioligand binding, adrenergic α1B ([3H]Prazosin). The conditions noted are these: for inhibition at 0.1 µM: read-out: Percentage inhibition of ligand binding, Adrenergic α1B; for inhibition at 0.03 µM: read-out: Percentage inhibition of ligand binding, Adrenergic α1B (0.03 μM), compound at 0.03 μM, repeat datapoints each shown. The gist of the method:
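Filter binding with Wistar rat liver α1B preparation: test compound plus 0.25 nM [3H]prazosin, 1 h at 25° C in modified Tris-HCl buffer pH 7.4.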

For assay [2], the target named is T2, human recombinant adrenergic α1D receptor (Homo sapiens, UniProt P25100).
T2 construct: expressed in transfected cells; host or cells: HEK-293
T2 sequence (P25100 1-572): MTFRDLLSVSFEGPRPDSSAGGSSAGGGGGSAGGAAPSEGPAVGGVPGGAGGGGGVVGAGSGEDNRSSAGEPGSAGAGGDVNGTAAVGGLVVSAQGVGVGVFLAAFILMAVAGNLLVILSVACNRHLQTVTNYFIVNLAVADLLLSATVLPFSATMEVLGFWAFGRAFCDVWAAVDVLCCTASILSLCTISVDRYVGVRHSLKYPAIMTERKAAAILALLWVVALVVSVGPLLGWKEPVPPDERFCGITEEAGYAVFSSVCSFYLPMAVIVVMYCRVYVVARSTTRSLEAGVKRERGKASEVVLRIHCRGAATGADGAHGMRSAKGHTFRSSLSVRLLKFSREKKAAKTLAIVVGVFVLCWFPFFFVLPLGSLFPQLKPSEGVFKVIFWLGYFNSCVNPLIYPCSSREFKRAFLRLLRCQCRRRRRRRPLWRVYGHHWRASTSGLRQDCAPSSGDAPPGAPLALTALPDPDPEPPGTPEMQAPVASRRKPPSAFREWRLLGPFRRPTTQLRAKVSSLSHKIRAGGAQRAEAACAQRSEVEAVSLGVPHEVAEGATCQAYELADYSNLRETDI
Description: Radioligand binding, adrenergic α1D ([3H]Prazosin). The conditions noted are these: for inhibition at 0.1 µM: read-out: Percentage inhibition of ligand binding, Adrenergic α1D; for inhibition at 0.03 µM: read-out: Percentage inhibition of ligand binding, Adrenergic α1D (0.03 μM), compound at 0.03 μM, repeat datapoints each shown. The protocol:
Compounds were incubated with 0.6 nM [3H]Prazosin for 60 min at 25° C. Non-specific binding was estimated in the presence of 10 μM phentolamine. Receptor proteins were filtered and washed, the filters were then counted to determine [3H]Prazosin specifically bound. […] Biochemical assay results are presented as the percent inhibition of specific binding in Table B1.

The target in assay [3] is T3, human recombinant adrenergic α2B receptor (Homo sapiens, UniProt P18089).
T3 construct: expressed in transfected cells; host or cells: CHO-K1
T3 sequence (P18089 1-450): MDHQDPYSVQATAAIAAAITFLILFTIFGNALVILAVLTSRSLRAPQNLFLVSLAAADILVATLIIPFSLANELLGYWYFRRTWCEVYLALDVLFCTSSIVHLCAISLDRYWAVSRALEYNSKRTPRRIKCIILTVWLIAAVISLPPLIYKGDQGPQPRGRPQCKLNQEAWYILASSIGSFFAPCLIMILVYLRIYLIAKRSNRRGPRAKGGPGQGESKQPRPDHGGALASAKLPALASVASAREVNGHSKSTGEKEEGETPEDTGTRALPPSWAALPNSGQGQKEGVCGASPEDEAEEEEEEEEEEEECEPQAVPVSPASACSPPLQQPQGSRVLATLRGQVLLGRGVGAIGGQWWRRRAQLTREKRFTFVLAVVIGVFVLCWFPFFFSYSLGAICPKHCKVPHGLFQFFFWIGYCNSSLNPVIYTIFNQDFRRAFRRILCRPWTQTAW
The experiment in a line: Radioligand binding, adrenergic α2B ([3H]Rauwolscine). The procedure, abridged: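 Receptor expressed in CHO-K1 cells, assayed in 50 mM Tris-HCl pH 7.4 with 12.5 mM MgCl2, 1 mM EDTA and 0.2% BSA. Compounds were incubated with 2.5 nM [3H]Rauwolscine for 60 min at 25° C; 10 μM Prazosin defined non-specific binding. Filter counting gave percent inhibition of specific binding.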

Assay [4] deals with T4, human recombinant adrenergic α2A receptor (Homo sapiens, UniProt P08913).
T4 construct: expressed in transfected cells; host or cells: insect Sf9 cells
T4 sequence (P08913 1-465): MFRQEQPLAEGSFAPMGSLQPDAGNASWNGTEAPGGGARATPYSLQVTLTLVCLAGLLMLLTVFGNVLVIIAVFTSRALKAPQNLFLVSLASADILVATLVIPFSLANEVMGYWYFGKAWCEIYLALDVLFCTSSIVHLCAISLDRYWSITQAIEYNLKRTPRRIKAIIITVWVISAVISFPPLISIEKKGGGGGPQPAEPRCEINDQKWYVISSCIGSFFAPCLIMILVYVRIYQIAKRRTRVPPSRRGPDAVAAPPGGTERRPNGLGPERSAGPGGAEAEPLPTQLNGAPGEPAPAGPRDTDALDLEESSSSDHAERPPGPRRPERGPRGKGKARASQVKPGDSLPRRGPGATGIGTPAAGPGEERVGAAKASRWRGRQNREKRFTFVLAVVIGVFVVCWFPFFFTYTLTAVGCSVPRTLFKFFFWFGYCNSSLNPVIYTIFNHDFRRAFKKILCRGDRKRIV
The experiment in a line: Radioligand binding, adrenergic α2A ([3H]MK-912). The procedure, abridged:
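Receptor expressed in insect Sf9 cells, assayed in 50 mM Tris-HCl pH 7.4 with 12.5 mM MgCl2 and 2 mM EDTA. Compounds incubated with 1 nM [3H]MK-912 for 60 min at 25 °C; nonspecific binding defined with 10 μM WB-4101. Filter-bound radioactivity counted; values are percent inhibition of specific binding.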

The mark [5] stands for this setting: 0.1 μM compound, read-out: Percentage inhibition of ligand binding, Adrenergic α2B.
Where [6] appears, read: 0.1 μM compound, read-out: Percentage inhibition of ligand binding, Adrenergic α2A.
Where [7] appears, read: read-out: Percentage inhibition of ligand binding, Adrenergic α2B (0.1 μM), compound at 0.1 μM, [3H]Rauwolscine, repeat datapoints each shown.
Setting [8] is: read-out: Percentage inhibition of ligand binding, Adrenergic α2A (0.1 μM), compound at 0.1 μM, [3H]MK-912, repeat datapoints each shown.
Setting [9] is: compound at 0.1 μM, [3H]Prazosin, repeat assays, each datapoint shown.

One may read the inhibition as the drop in the measured response relative to a control, in per cent. As to `CC(Cn1c2c(c3ccccc31)CN(C)CC2)c1ccc(F)cc1` (single isomer, unassigned) [272a], in assay [1] (0.1 μM compound), the inhibition at 0.1 µM was found to be 27%. The “Percentage inhibition of ligand binding, Adrenergic α1D” value in assay [2] (0.1 μM compound, 0.1 µM) was determined as 12%. For the same compound, the “Percentage inhibition of ligand binding, Adrenergic α2B” value in assay [3] (0.1 μM compound) is reported as −10%. Also, the “Percentage inhibition of ligand binding, Adrenergic α2A” value in assay [4] (0.1 μM compound, 0.1 µM) is listed as 33%.

Turning to `Cc1ccc2c(c1)c1c(n2CC(C)(C)c2ccncc2)CCN(C)C1` [compound 260], the inhibition at 0.1 µM in assay [1] (0.1 μM compound) was found to be 45%; in assay [2] (0.1 μM compound), 26%; in assay [3] (setting [5]), 92%; in assay [4] (setting [6]), 54%.

Consider `COc1ccc(/C(C)=C/n2c3c(c4cc(C)ccc42)CCN(C)CC3)cc1` [compound 251], for which the inhibition at 0.1 µM was found to be 89% in assay [1] (0.1 μM compound), 53% in assay [2] (0.1 μM compound), 101% in assay [3] (setting [5]) and 85% in assay [4] (setting [6]).

`Cc1ccc2c(c1)c1c(n2CCc2cccc(C)n2)CCN(C)C1` [compound 297, 2,8-dimethyl-5-[2-(6-methyl-pyridin-2-yl)-ethyl]-2,3,4,5-tetrahydro-1H-pyrido[4,3-b]indole]: the inhibition at 0.1 µM in assay [1] (0.1 μM compound) amounted to 69%; in assay [2] (0.1 μM compound), 36%; in assay [3] (setting [5]), 46%; in assay [4] (setting [6]), 50%.

With `C/C(=C/n1c2c(c3cc(Cl)ccc31)CN(C)CC2)c1cc(F)c(F)cc1Cl` [compound 252], the inhibition at 0.1 µM in assay [1] (0.1 μM compound) was determined as 36%; in assay [2] (0.1 μM compound), 13%; in assay [3] (setting [5]) it was 52%; in assay [4] (setting [6]), 66%.

`C/C(=C\n1c2c(c3cc(Cl)ccc31)CCN(C)CC2)c1cccc(F)c1` [compound 248]: the inhibition at 0.1 µM in assay [1] (0.1 μM compound) came to 76%; in assay [2] (0.1 μM compound), 31%; in assay [3] (setting [5]), 95%; in assay [4] (setting [6]), 90%.

As a reminder, the Ki is the equilibrium dissociation constant of an inhibitor or competing ligand from its target. As to `Cc1ccc2c(c1)c1c(n2CCc2ccc(F)cc2)CCN(C)C1` [compound 206], the figures for the inhibition at 0.03 µM in assay [1] ([3H]Prazosin) and in assay [2] ([3H]Prazosin) were 46% and 42%, respectively. Further, the inhibition at 0.1 µM was 102% in assay [3] (setting [7]) and 86% in assay [4] (setting [8]). Moreover, the Ki in assay [4] is 1.12 nM and 6.79 nM.

As for `Cc1cc(-c2sccc2C)c2c(c1)c1c(n2CCc2ccc(C)nc2)CCN(C)C1` [compound 327], the inhibition at 0.1 µM in assay [1] (0.1 μM compound) is -5%; in assay [2] (0.1 μM compound), 4%; in assay [3] (setting [5]) it was -4%; in assay [4] (setting [6]), 58%.

Take `Cc1ccc2c(c1)c1c(n2CCc2ccc(C(F)(F)F)nc2)CCN(C)C1` [compound 86]: the inhibition at 0.1 µM in assay [1] (setting [9]) was determined as 62%; in assay [2] (setting [9]) it was 62%; in assay [3] (compound at 0.1 μM, [3H]Rauwolscine, repeat assays, each datapoint shown, read-out: Percentage inhibition of ligand binding, Adrenergic α2B), 77%; in assay [4] (compound at 0.1 μM, [3H]MK-912, repeat assays, each datapoint shown, read-out: Percentage inhibition of ligand binding, Adrenergic α2A), 27%.

With `C/C(=C/n1c2c(c3cc(C)ccc31)CN(C)CC2)c1cc(C)cs1` [compound 291], the inhibition at 0.1 µM in assay [1] (0.1 μM compound) stood at 88%; in assay [2] (0.1 μM compound) it was 85%; in assay [3] (setting [5]) it was 105%; in assay [4] (setting [6]) it was 102%.

With `CN1CCc2c(c3cc(Cl)ccc3n2CCc2ccccc2)C1` [compound 207], the inhibition at 0.03 µM in assay [1] ([3H]Prazosin) came to 49%; in assay [2] ([3H]Prazosin), 39%. The values for the inhibition at 0.1 µM in assay [3] (setting [7]) and in assay [4] (setting [8]) were 106% and 90%, respectively. Besides, the Ki in assay [4] came to 1.16 nM.

As to `C/C(=C/n1c2c(c3cc(C)ccc31)CN(C)CC2)c1ccc2ccccc2c1` [compound 271], the inhibition at 0.1 µM in assay [1] (0.1 μM compound) worked out at 65%; in assay [2] (0.1 μM compound) it was 83%; in assay [3] (setting [5]), 71%; in assay [4] (setting [6]) it was 97%.

Turning to `Cc1ccc(CCn2c3c(c4c(Cl)c(Cl)ccc42)CN(C)CC3)cn1` [compound 319], the inhibition at 0.1 µM in assay [1] (0.1 μM compound) amounted to 13%; in assay [2] (0.1 μM compound), 8%; in assay [3] (setting [5]) it was 4%; in assay [4] (setting [6]), 63%.

With `C/C(=C\n1c2c(c3cc(C)ccc31)CN(C)CC2)c1cc(C)cs1` [compound 285], the inhibition at 0.1 µM in assay [1] (0.1 μM compound) turned out to be 63%; in assay [2] (0.1 μM compound), 71%; in assay [3] (setting [5]), 97%; in assay [4] (setting [6]), 98%.

In the case of `Cc1ccc2c(c1)c1c(n2CNc2ccccc2)CCN(C)C1` [compound 324, (2,8-dimethyl-1,2,3,4-tetrahydro-pyrido[4,3-b]indol-5-ylmethyl)-phenyl-amine], the inhibition at 0.1 µM in assay [1] (0.1 μM compound) is 63%; in assay [2] (0.1 μM compound), 31%; in assay [3] (setting [5]) it was 99%; in assay [4] (setting [6]), 67%.

As for `C/C(=C/n1c2c(c3cc(C)ccc31)CN(C)CC2)c1ccc(F)cc1F` [compound 258], the inhibition at 0.1 µM in assay [1] (0.1 μM compound) came out at 93%; in assay [2] (0.1 μM compound), 74%; in assay [3] (setting [5]), 99%; in assay [4] (setting [6]) it was 94%.

Take `CSc1cccc(/C(C)=C/n2c3c(c4cc(C)ccc42)CN(C)CC3)c1` [compound 268]: the inhibition at 0.1 µM amounted to 57% in assay [1] (0.1 μM compound), 39% in assay [2] (0.1 μM compound), 94% in assay [3] (setting [5]) and 90% in assay [4] (setting [6]).
